Reference: patent US12616674B2, “Anti-fibrotic NEU3 inhibitor compounds and methods of use” (The Texas A&M University System, priority 2019, dated 2026)

Target: T1, recombinant human sialidase NEU3 (Homo sapiens, UniProt Q9UQ49)
T1 construct: purchased Origene TP316537
T1 sequence (Q9UQ49 1-428): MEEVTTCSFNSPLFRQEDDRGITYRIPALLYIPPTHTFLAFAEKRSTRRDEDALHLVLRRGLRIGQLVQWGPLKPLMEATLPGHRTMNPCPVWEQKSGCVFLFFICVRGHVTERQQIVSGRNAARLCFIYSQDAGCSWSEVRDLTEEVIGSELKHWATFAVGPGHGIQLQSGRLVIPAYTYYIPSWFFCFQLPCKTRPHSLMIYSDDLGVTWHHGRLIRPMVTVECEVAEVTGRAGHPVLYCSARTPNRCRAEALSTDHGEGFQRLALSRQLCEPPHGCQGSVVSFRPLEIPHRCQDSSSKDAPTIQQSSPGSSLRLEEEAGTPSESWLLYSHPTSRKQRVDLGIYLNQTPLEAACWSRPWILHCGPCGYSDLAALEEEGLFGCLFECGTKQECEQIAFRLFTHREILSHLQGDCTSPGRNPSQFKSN
Assay: NEU3-catalyzed L-TGF-β1 activation (TGF-β1 release/concentration assay, active TGF-β1 ELISA)
Format: biochemical
Settings: recombinant human NEU3, L-TGF-β1, PBS pH 6.9, 2 hours 37° C.; read-out: IC50, inhibits human NEU3 in the TGF-β1 concentration assay
Method: To determine if NEU3 can cause latent transforming growth factor-β1 (L-TGF-β1) to release active TGF-β1, 200 ng/ml recombinant human L-TGF-β1 (299-LT/CF, R&D Systems) was incubated with varying concentrations of recombinant human NEU3 (TP316537, Origene) in a total volume of 100 μl of PBS pH 6.9 in a 96-well microplate (651261, Greiner Bio-one, Monroe, NC). The microplates were covered with aluminum foil and incubated at 37° C. for 2 hours. Following incubation, the reaction mixtures were assayed using a TGF-β1 ELISA kit (DY240, R&D Systems) following the manufacturer's protocol with the exception that the reaction mixtures were not processed for acid treatment, so as to measure only active TGF-β1 and not total TGF-β1. The absorbance was read with a SynergyMX plate reader (BioTek, Winooski, VT).
To determine the ability of compounds 1-31 to inhibit human recombinant NEU3 in-vitro, compounds were dissolved in 5 ml water to 20 mM in 15 ml tubes (89039-664, VWR, Radnor, PA), with the exception that 4-hydroxypyridine-2-carboxylic acid, nicotinic acid, and 4-aminopicolinic acid were dissolved in 50 μl DMSO to 2 M, and this was then added to 4.95 ml of water to make a 20 mM stock, and O-(tetrahydro-2H-pyran-2yl) hydroxylamine and salicylic acid were dissolved in 50 μl methanol to 2 M, and this was then added to 4.95 ml of water to make a 20 mM stock. All stocks were stored at 4° C. and used within 2 weeks of preparation. A 10-fold dilution series of the compounds starting at 2 mM were made in PBS pH 6.9 in 1.7 ml clear microtubes (22-281, Genesee Scientific). 100 μl of diluted compound was added to the well of a 96 well plate and then 50 μl of 400 ng/ml recombinant human sialidase NEU3 (TP316537, Origene) in PBS pH 6.9 was added to each well (50 μl PBS pH 6.9 for the control), and the plate was incubated for 30 minutes at 37° C. 50 μl of 800 ng/ml L-TGF-β1 (299-LT/CF, R&D Systems) in PBS pH 6.9 was then added to the well. The plate was covered with aluminum foil and incubated for 2 hours at 37° C., and released active TGF-β1 was assayed as described above.

SMILES | IC50 [nM]
CC(=O)c1ccccn1 [Compound 5, 2-acetylpyridine] | 42
COC(=O)c1ccccn1 [Compound 6, methyl picolinate] | 0.014
CN1CCC(N)CC1C(=O)O (stereo not drawn) [Compound 26, 2-piperidinecarboxylic acid, 4-amino-1-methyl] | < 0.01
